Data: patent US20080255368A1, “Tgf-ß Gene Expression Inhibitor” (Nihon University, priority 2004, published 2008)

How the values were obtained:
[1] = test system: double-stranded oligonucleotides corresponding to base pairs of an hTGF-β1 promoter; test: Gel shift assay of Py-Im polyamide-oligonucleotide complexes; assay type: binding, human; conditions: 11-base double-stranded DNA containing the target sequence, compared with lanes with DS only, FIG. 3
Procedure: Oligonucleotides were synthesized and annealed, and thereby 12 types of double-stranded oligonucleotides corresponding to base pairs of an hTGF-β1 promoter were prepared. A double-strand DNA was labeled with [γ-^32P]-ATP by T4 polynucleotide kinase. The labeled double-stranded DNA was then incubated for 15 minutes at 37° C. with a polyamide or a mismatch polyamide in a binding buffer solution (40 mM Tris, pH 7.9, 250 mM NaCl, 25 mM EDTA, 25 mM DTT, 100 mM KCl). The obtained complexes were separated by electrophoresis on 20% polyacrylamide gels and visualized by autoradiography.
The binding to target sequences of GB1105 and GBP1106 was examined by gel shift assay. Sense and antisense oligonucleotide having 11 bases containing each target sequence of Py-Im polyamide were prepared, annealed to prepare a double-stranded DNA to the target site, and incubated with each Py-Im polyamide. The obtained products were electrophoresed with polyacrylamide gel and the binding between Py-Im and the target sequence was examined.

[2] = test system: TGF-β1 messenger RNA; test: Inhibition of expression of TGF-β1 messenger RNA in PMA-stimulated human mesangium cells (RT-PCR); assay type: cell-based; conditions: 12 hours serum-free; for inhibition of expression of TGFβ1 gene: 1×10^−6 M polyamide, 1×10^−6 M PMA stimulation, corrected with 18S
Procedure: (6) Reverse Transcription-Polymerase Chain Reaction (RT-PCR) Assay for RNA Extraction and Growth Factor mRNA
The cultured cells were washed with PBS, dissolved in 1,000 μL of Trizol (Invitrogen), mixed with 100 μL of chloroform, and centrifuged, and an upper aqueous phase thereof was mixed with an equal volume of isopropanol to precipitate RNA. The resulting RNA pellet was washed twice with 500 μL of 75% ethanol, dried, and dissolved in 10 μL of TE buffer solution. The RNA sample was denatured for 15 minutes at 65° C., and treated at room temperature for 45 minutes with 0.5 U of DNase (Gibco) in 0.5 ml of DNase buffer solution (20 mM Tris-HCl pH 8.3, 50 mM KCl, 2.5 mM MgCl2. The DNase was inactivated by adding 0.5 mL of 0.5 M EDTA and heating at 98° C. for 10 minutes.
An equal volume of RNA (1 μg/20 μL) was reverse-transcribed into single-stranded cDNA by 2.5 U/20 μL of avian myeloblastoma virus reverse transcriptase (Takara Biochemicals, Osaka, Japan) in 10 mM Tris-HCl (pH 8.3), 5 mM MgCl2, 50 mM KCl, 1 mM deoxy-NTPs, and 2.5 μM random hexamer. Then, 2 μL of the diluted cDNA product was mixed with 10 mM Tris-HCl (pH 8.3), 50 mM KCl, 4 mM MgCl2, 0.025 U/μL Taq DNA polymerase (Takara Biochemicals, Osaka, Japan), and 0.2 μM each of upstream sense primer and downstream antisense primer in a final volume of 25 μL. The sense primer (5′-[…]-3′) (SEQ ID NO: 7) and the antisense primer (5′-[…]-3′) (SEQ ID NO: 8) were used for PCR amplification of hTGF-β1 mRNA. A sense primer (5′-[…]-3′) (SEQ ID NO: 9) and an antisense primer (5′-[…]-3′) (SEQ ID NO:. 10) to human 18S ribosomal RNA were used as an internal control. PCR was performed by a Thermal Cycler (Perkin Elmer, Foster, Calif.). […] For semi-quantitative analysis of mRNA, the numbers of cycles whereby PCR products were detectable on gels were compared among various samples. cDNAs by successively 10 times dilutions (100, 10, and 1 ng) were amplified. […]

Row | SMILES | binding to target sequence (migration of double-stranded DNA in gel shift) [1] | inhibition of expression of TGFβ1 gene [2] | increase of expression of TGFβ1 gene ([2]; 1×10^−6 M of PMA stimulation, human mesangium cells)
1 | CC(=O)Nc1cn(C)c(C(=O)Nc2cc(C(=O)Nc3cn(C)c(C(=O)NCCC(=O)Nc4cc(C(=O)Nc5cc(C(=O)Nc6cc(C(=O)NCCCC(=O)Nc7cn(C)c(C(=O)Nc8cc(C(=O)Nc9cn(C)c(C(=O)NCCC(=O)Nc%10cc(C(=O)Nc%11cc(C(=O)Nc%12cc(C(=O)NCCC(=O)NCCCN(C)C)n(C)c%12)n(C)c%11)n(C)c%10)n9)n(C)c8)n7)n(C)c6)n(C)c5)n(C)c4)n3)n(C)c2)n1 [GBP1106] | decreased the migration degree | up to 50% | –
2 | CNCCCNC(=O)CCNC(=O)c1cc(NC(=O)c2cc(NC(=O)CCNC(=O)c3cc(NC(=O)c4cc(NC(=O)c5cc(NC(=O)CCCNC(=O)c6nc(NC(=O)c7cc(NC(=O)c8nc(NC(=O)CCNC(=O)c9nc(NC(=O)c%10nc(NC(C)=O)cn%10C)cn9C)cn8C)cn7C)cn6C)cn5C)cn4C)cn3C)cn2C)cn1C [GBP1105] | decreased the migration degree | up to 50% | –
3 | CCCCCCCCCCCCCC(=O)O[C@@H]1[C@@H](C)[C@@]2(O)[C@@H](C=C(CO)C[C@]3(O)C(=O)C(C)=C[C@@H]23)[C@@H]2C(C)(C)[C@]12OC(C)=O [PMA, 12-o-tetradecanoylpholbol-13-acetate, reference compound] | – | – | 20%
